# Patent US20230123601A1, “PHARMACEUTICAL COMBINATION OF ANTIVIRAL AGENTS TARGETING HBV AND/OR AN IMMUNE MODULATOR FOR TREATMENT OF HBV” (priority 2019, published 2023)
# Test system: HBV
# Assay: HBsAg levels in serum of AAV/HBV mice (CLIA)
# Assay type: in vivo, C57BL/6 mice
# Parameters: HBsAg levels in serum (Average ± SD): scale not given here
# Source text: The AAV-HBV mouse model is generated by injecting C57BL/6 mice with recombinant adeno-associated virus harboring a replicable HBV genome (AAV-HBV). The rAAV8-1.3 HBV ayw virus stock was purchased from Beijing FivePlus Molecular Medicine Institute (Beijing, China). The animals (male, aged 4-5 weeks upon arrival) were purchased from SLAC Laboratory Animal Co. Ltd (Shanghai, China), acclimatized in the animal facility for 5-7 days, and then injected with 1×10^11 vector genome of AAV-HBV (diluted in 200 μL of PBS) through the tail vein. Persistence expression of HBV genome can be established after three weeks, with high levels of HBV viral markers including HBV DNA, HBsAg, and HBeAg in mouse serum. With stable HBV viremia and competent immune system of the C57BL/6 mice, the AAV-HBV mouse model was used to evaluate the in vivo anti-HBV efficacy of the compounds. The in-life part of the AAV-HBV study was conducted through contracted service at Covance Pharmaceutical Research and Development (Shanghai) Co. Ltd. (Covance Shanghai) and the post-life analysis using the serum was performed internally at Roche Innovation Center Shanghai (RICS).
# Seven days before compound treatment, blood samples were collected for serum preparation (˜15 μL), and based on HBV DNA, HBsAg levels in serum and body weight, the AAV-HBV infected animals were stratified into the different treatment groups.
# Saline (Group 01) and anti-HBV ASO of CMP ID NO: 15_1 at 1.5 or 7.5 mg/kg were dosed sub subcutaneously once a week during Day 0-49 on Days 0, 7, 14, 21, 28, 35, 42 and 49. TLR7 agonist of CMP ID NO: VI 100 mg/kg was administered by oral gavage once every other day during Day 0-55 (QOD) or once weekly during Day 0-49 on Days 0, 7, 14, 21, 28, 35, 42 and 49 (QW). The animals were weekly bled via retro-orbital sinus for sample collection throughout the study.
# Serum HBsAg levels were determined in the serum of infected AAV-HBV mouse using the HBsAg chemoluminescence immunoassay (CLIA) (Autobio diagnostics Co. Ltd., Zhengzhou, China, Cat. no. CL0310-2), according to the manufacturer's protocol. Briefly, 50 μl of serum was transferred to the antibody coated microtiter plate and 50 μl of enzyme conjugate reagent was added. The plate was incubated for 60 min on a shaker at room temperature before all wells were washed six times with washing buffer using an automatic washer. 25 μl of substrate A and then 25 μl of substrate B was added to each well. The plate was incubated for 10 min at RT before luminescence was measured using an Envision luminescence reader (Perkin Elmer). HBsAg is given in the unit IU/ml; where 1 ng HBsAg=1.14 IU.
# To evaluate the combination of the anti-HBV ASO and the TLR7 agonist in an in vivo system, a mouse model of chronic HBV infection was used. In the AAV/HBV mouse model described in the Materials and Method a persistent HBV infection is established resulting in expression of viral markers (HBsAg, HBeAg, HBV DNA) detectable in plasma. The effect on these viral markers upon treatment with the anti-HBV ASO of CMP ID NO: 15_1 (table 2, and FIG. 4) dosed at 1.5 mg/kg or 7.5 mg/kg and the TLR7 agonist of CMP ID NO: VI (table 3) dosed with […] every other day (QOD) or once weekly (QW) in monotherapy or in combination has been evaluated.
structure (smiles),measurement,setting,value
"CC[C@H](OC(C)=O)[C@@H]1C[C@@H](O)[C@H](n2c(=O)sc3cnc(N)nc32)O1 [CMP ID NO: VI, [(1S)-1-[(2S,4R,5R)-5-(5-amino-2-oxo-thiazolo[4,5-d]pyrimidin-3-yl)-4-hydroxy-tetrahydrofuran-2-yl]propyl] acetate]",HBsAg levels in serum (Average ± SD),"D0, 15_1 1.5 mg/kg weekly, VI 100 mg/kg QOD, or combination of both",4.14 ± 0.37
same,HBsAg levels in serum (Average ± SD),"D0, 15_1 1.5 mg/kg weekly, VI 100 mg/kg QW, or combination of both",4.07 ± 0.44
same,HBsAg levels in serum (Average ± SD),"D0, 15_1 7.5 mg/kg weekly, VI 100 mg/kg QOD, or combination of both",4.14 ± 0.37
same,HBsAg levels in serum (Average ± SD),"D0, 15_1 7.5 mg/kg weekly, VI 100 mg/kg QW, or combination of both",4.07 ± 0.44
same,HBsAg levels in serum (Average ± SD),"D7, 15_1 1.5 mg/kg weekly, VI 100 mg/kg QOD, or combination of both",3.68 ± 1.03
same,HBsAg levels in serum (Average ± SD),"D7, 15_1 1.5 mg/kg weekly, VI 100 mg/kg QW, or combination of both",3.72 ± 0.85
same,HBsAg levels in serum (Average ± SD),"D7, 15_1 7.5 mg/kg weekly, VI 100 mg/kg QOD, or combination of both",3.68 ± 1.03
same,HBsAg levels in serum (Average ± SD),"D7, 15_1 7.5 mg/kg weekly, VI 100 mg/kg QW, or combination of both",3.72 ± 0.85
same,HBsAg levels in serum (Average ± SD),"D14, 15_1 1.5 mg/kg weekly, VI 100 mg/kg QOD, or combination of both",3.11 ± 1.35
same,HBsAg levels in serum (Average ± SD),"D14, 15_1 1.5 mg/kg weekly, VI 100 mg/kg QW, or combination of both",3.52 ± 0.96
same,HBsAg levels in serum (Average ± SD),"D14, 15_1 7.5 mg/kg weekly, VI 100 mg/kg QOD, or combination of both",3.11 ± 1.35
same,HBsAg levels in serum (Average ± SD),"D14, 15_1 7.5 mg/kg weekly, VI 100 mg/kg QW, or combination of both",3.52 ± 0.96
same,HBsAg levels in serum (Average ± SD),"D21, 15_1 1.5 mg/kg weekly, VI 100 mg/kg QOD, or combination of both",2.62 ± 1.41
same,HBsAg levels in serum (Average ± SD),"D21, 15_1 1.5 mg/kg weekly, VI 100 mg/kg QW, or combination of both",3.07 ± 1.22
same,HBsAg levels in serum (Average ± SD),"D21, 15_1 7.5 mg/kg weekly, VI 100 mg/kg QOD, or combination of both",2.62 ± 1.41
same,HBsAg levels in serum (Average ± SD),"D21, 15_1 7.5 mg/kg weekly, VI 100 mg/kg QW, or combination of both",3.07 ± 1.22
same,HBsAg levels in serum (Average ± SD),"D28, 15_1 1.5 mg/kg weekly, VI 100 mg/kg QOD, or combination of both",2.21 ± 1.28
same,HBsAg levels in serum (Average ± SD),"D28, 15_1 1.5 mg/kg weekly, VI 100 mg/kg QW, or combination of both",2.65 ± 1.37
same,HBsAg levels in serum (Average ± SD),"D28, 15_1 7.5 mg/kg weekly, VI 100 mg/kg QOD, or combination of both",2.21 ± 1.28
same,HBsAg levels in serum (Average ± SD),"D28, 15_1 7.5 mg/kg weekly, VI 100 mg/kg QW, or combination of both",2.65 ± 1.37
same,HBsAg levels in serum (Average ± SD),"D35, 15_1 1.5 mg/kg weekly, VI 100 mg/kg QOD, or combination of both",1.78 ± 1.18
same,HBsAg levels in serum (Average ± SD),"D35, 15_1 1.5 mg/kg weekly, VI 100 mg/kg QW, or combination of both",2.49 ± 1.29
same,HBsAg levels in serum (Average ± SD),"D35, 15_1 7.5 mg/kg weekly, VI 100 mg/kg QOD, or combination of both",1.78 ± 1.18
same,HBsAg levels in serum (Average ± SD),"D35, 15_1 7.5 mg/kg weekly, VI 100 mg/kg QW, or combination of both",2.49 ± 1.29
same,HBsAg levels in serum (Average ± SD),"D42, 15_1 1.5 mg/kg weekly, VI 100 mg/kg QOD, or combination of both",1.57 ± 0.97
same,HBsAg levels in serum (Average ± SD),"D42, 15_1 1.5 mg/kg weekly, VI 100 mg/kg QW, or combination of both",2.28 ± 1.28
same,HBsAg levels in serum (Average ± SD),"D42, 15_1 7.5 mg/kg weekly, VI 100 mg/kg QOD, or combination of both",1.57 ± 0.97
same,HBsAg levels in serum (Average ± SD),"D42, 15_1 7.5 mg/kg weekly, VI 100 mg/kg QW, or combination of both",2.28 ± 1.28
same,HBsAg levels in serum (Average ± SD),"D49, 15_1 1.5 mg/kg weekly, VI 100 mg/kg QOD, or combination of both",1.63 ± 0.86
same,HBsAg levels in serum (Average ± SD),"D49, 15_1 1.5 mg/kg weekly, VI 100 mg/kg QW, or combination of both",1.9 ± 1.07
same,HBsAg levels in serum (Average ± SD),"D49, 15_1 7.5 mg/kg weekly, VI 100 mg/kg QOD, or combination of both",1.63 ± 0.86
same,HBsAg levels in serum (Average ± SD),"D49, 15_1 7.5 mg/kg weekly, VI 100 mg/kg QW, or combination of both",1.90 ± 1.07
same,HBsAg levels in serum (Average ± SD),"D56, 15_1 1.5 mg/kg weekly, VI 100 mg/kg QOD, or combination of both",1.56 ± 0.77
same,HBsAg levels in serum (Average ± SD),"D56, 15_1 1.5 mg/kg weekly, VI 100 mg/kg QW, or combination of both",2.13 ± 1
same,HBsAg levels in serum (Average ± SD),"D56, 15_1 7.5 mg/kg weekly, VI 100 mg/kg QOD, or combination of both",1.56 ± 0.77
